Assay results taken from patent US11497729B2, “Methods and materials for treating cancer” (Mayo Foundation for Medical Education and Research, priority 2016, dated 2022).
Entries after “also recorded” stand apart in the source; their conditions may differ.

How the values were obtained:
[1] = tested on: HER2+ breast cancer cells; experiment: Cell survival by MTS assay, Herceptin with or without P005091; assay type: cell-based; settings: FIG. 4A
Protocol: (§1) P005091 increased the efficacy of the HER2 inhibitor, trastuzumab, in HER2^+ breast cancer cells, xenografts, and PDX models. HER2^+ breast cancer cells were treated with indicated concentrations of Herceptin with or without 10 μM P005091 for 72 hours. Cell survival was determined by MTS assays. Data was shown as mean values for three independent experiments, and error bars represent standard error of the mean (SEM) (n=3) (FIG. 4A). Tumor xenografts were initiated by subcutaneous inoculation of Bt474 parental and Bt474 Herceptin resistance cells in the lower back of SCID mice. Herceptin (15 mg/kg) and P005091 (10 mg/kg) were administered intraperitoneally once a week for the entire duration of the study. […] A HER2^+ patient derived xenograft model was tested by inoculation of tissues in the lower back of SCID mice (FIG. 4C). Drug treatment was same as described above. Data represent the mean±SD of 6 mice in each group.

[2] = tested on: HER2+ patient derived xenograft; experiment: HER2+ patient derived xenograft model in SCID mice; assay type: in vivo; settings: Herceptin 15 mg/kg and P005091 10 mg/kg intraperitoneally once a week, FIG. 4C
Protocol: as §1

HER1 (EGFR) = experiment: Western blot of ZR-75-1 cell lysates, HER1; assay type: cell-based; settings: ZR-75-1 cells, 10 μM P005091 for 12 hours; FIG. 5
Protocol: (§2) Breast cancer cells ZR-75-1 were treated with either 1% DMSO or 10 μM P005091 for 12 hours. Cell lysates were subjected to western blot with indicated antibodies (FIG. 5).

HER2 = experiment: Western blot of ZR-75-1 cell lysates, HER2; assay type: cell-based; settings: ZR-75-1 cells, 10 μM P005091 for 12 hours; FIG. 5
Protocol: as §2

HER3 = experiment: Western blot of ZR-75-1 cell lysates, HER3; assay type: cell-based; settings: ZR-75-1 cells, 10 μM P005091 for 12 hours; FIG. 5
Protocol: as §2

HER4 = experiment: Western blot of ZR-75-1 cell lysates, HER4; assay type: cell-based; settings: ZR-75-1 cells, 10 μM P005091 for 12 hours; FIG. 5
Protocol: as §2

SMILES: CC(=O)c1cc([N+](=O)[O-])c(Sc2cccc(Cl)c2Cl)s1 [P005091, 1-[5-(2,3-dichlorophenyl)sulfanyl-4-nitrothiophen-2-yl]ethanone]
- sensitization effect in HER2 resistant breast cancer cell lines ([1]; HER2 resistant breast cancer cell lines): sensitization effect occurred
- sensitization of HER2+ breast cancer cells to trastuzumab treatment (cell survival) ([1]; four different HER2+ breast cancer cells, 10 μM P005091 with Herceptin for 72 hours): sensitizes; also recorded: dramatically sensitized
- sensitivity of PDX model to treatment [2]: dramatically sensitized
- HER1 (EGFR) protein level by Western blot (HER1 (EGFR)): down regulated
- HER2 protein level by Western blot (HER2): down regulated
- HER3 protein level by Western blot (HER3): down regulated
- HER4 protein level by Western blot (HER4): down regulated
